Results published in patent publication US8268635B2, “Methods of identifying agents that selectively activate p38 and/or NKkB signaling” (priority 2006, dated 2012).
“Also recorded” adds a separate entry of the source. Where no end group is shown, it is not given here.

What was measured:
NFκB = NFκB pathway activation in human neutrophils (nuclear translocation of NFκB); type: cell-based
Protocol: After cell lysis, nuclear fractions were prepared, nuclear proteins separated by SDS page (12% gel), transferred to nitrocellulose and probed with an anti NFκB p65 antibody (Santa Cruz).
Western blot analysis was conducted as described previously (Hii, C. S., Huang, Z. H., Bilney, A., Costabile, M., Murray, A. W., Rathjen, D. A., Der, C. J., and Ferrante, A. (1998) J. Biol. Chem. 273: 19277-19282). Briefly, equal amounts of denatured protein from each lysate were separated by 12% SDS polyacrylamide gel electrophoresis (PAGE). The proteins were electrophoretically transferred to nitrocellulose membranes (Schleicher and Schuell, Keene, N. H., USA)(3 h at 40V). […] Immune complexes were visualised by enhanced chemiluminescence (Hii, C. S., Huang, Z. H., Bilney, A., Costabile, M., Murray, A. W., Rathjen, D. A., Der, C. J., and Ferrante, A. (1998) J. Biol. Chem. 273: 19277-19282).
This pathway, akin to the p38 pathway, is dependent on TRAF-2 and RIP (Kyriakis, J. M., and Auruch, J. (2001) Physiol Rev. 81: 807-869). We measured the nuclear translocation of NFκB as an indicator of the activation of this pathway.

p38 [1] = experiment: p38 activity in HUVEC (immunoprecipitation, myelin basic protein substrate); type: cell-based, human; settings: 5 min; TNF 1,000 U/ml, peptides 10 μM
Protocol: (§1) The level of myelin basic protein phosphorylation was quantitated by an Instant Imager.
(§2) KHS (hereon referred to as “GCKR”) activity was assayed as described previously using myelin basic protein as a substrate (Shi, C. S., Leonardi, A., Kyriakis, J., Siebenlist, U., and Kerhl, J. H. (1999) J. Immunol. 163: 3279-3285). ASK-1 activation was determined in immunoprecipitates of ASK-1 by autophosphorylation (Kyriakis, J. M., and Auruch, J. (2001) Physiol. Rev. 81: 807-869). p38 and ERK activities were determined as described using myelin basic protein as a substrate (Hii, C. S., Huang, Z. H., Bilney, A., Costabile, M., Murray, A. W., Rathjen, D. A., Der, C. J., and Ferrante, A. (1998) J. Biol. Chem. 273: 19277-19282). […] A solid phase assay using glutathione-S-transferase (GST)-conjugated-jun (1-79) was employed to assay JNK activity (Hii, C. S., Huang, Z. H., Bilney, A., Costabile, M., Murray, A. W., Rathjen, D. A., Der, C. J., and Ferrante, A. (1998) J. Biol. Chem. 273: 19277-19282). Phosphorylated ASK-1, myelin basic protein and GST-jun (1-79) were fractionated on 8, 16 and 12% SDS polyacrylamide gels, respectively, and the bands were detected and radioactivity determined using an Instant Imager (Packard Instruments, Canberra, Australia).

ASK-1 = ASK-1 autophosphorylation in neutrophils; type: cell-based, human
Protocol: (§3) GCKR was immunoprecipitated from cell lysates and activity assayed using myelin basic protein (MBP) as the substrate. […] Activation of ASK-1 was determined by kinase autophosphorylation.
as §2

JNK [2] = experiment: JNK activation in neutrophils in suspension; type: cell-based, human; settings: 15 min; TNF 100 U/ml, TNF70-80 10 μM, anisomycin 2.5 μg/ml
Protocol: The cells were lysed and the lysate assessed by western blot analysis for the level of dual-phosphorylated ERK1/ERK2 (top panel) and ERK2 protein (bottom panel). […] The level of myelin basic protein phosphorylation was quantitated by an Instant Imager.
Neutrophils were prepared from peripheral blood of healthy donors by a rapid single-step technique (Kumaratilake, L. M., Rathjen, D. A., Mack, P., Widmer, F., Prasertsiriroj, V., and Ferrante, A. (1995) J. Clin. Invest. 95: 2315-2323) using Hypaque-Ficoll and according to the institution's guidelines on human ethics. […]
KHS (hereon referred to as “GCKR”) activity was assayed as described previously using myelin basic protein as a substrate (Shi, C. S., Leonardi, A., Kyriakis, J., Siebenlist, U., and Kerhl, J. H. (1999) J. Immunol. 163: 3279-3285). ASK-1 activation was determined in immunoprecipitates of ASK-1 by autophosphorylation (Kyriakis, J. M., and Auruch, J. (2001) Physiol. Rev. 81: 807-869). p38 and ERK activities were determined as described using myelin basic protein as a substrate (Hii, C. S., Huang, Z. H., Bilney, A., Costabile, M., Murray, A. W., Rathjen, D. A., Der, C. J., and Ferrante, A. (1998) J. Biol. Chem. 273: 19277-19282). […]

E-selectin = E-selectin expression on endothelial cells; type: cell-based, human; settings: TNF 100 or 1000 U/ml, TNF70-80 1-50 μM; data not presented
neutrophils = experiment: Neutrophil superoxide production, lucigenin chemiluminescence assay; type: cell-based, human; settings: agent alone as stimulus
Protocol: Neutrophils were pre-treated with varying concentrations of SB203580 for 30 min and then exposed to 10 μM TNF70-80. The lucigenin enhanced chemiluminescence produced by the cells was measured in a luminometer. The peak initial rate of chemiluminescence produced is presented as the mean±sem of six experiments. The response in the presence of the inhibitor is expressed as a % of the control response.
Neutrophil superoxide production was measured as the chemiluminescence generated by the reduction of lucigenin, essentially as described previously (Kumaratilake, L. M., Rathjen, D. A., Mack, P., Widmer, F., Prasertsiriroj, V., and Ferrante, A. (1995) J. Clin. Invest. 95: 2315-2323). Briefly, to 1×10^6 neutrophils in 400 μl of HBSS was added 100 μl of stimulus and 500 μl of 250 μg/ml of lucigenin. The chemiluminescence was measured in a luminometer (Berthold Technologies, Bad Wildbad, Germany) over a 20 min period and the data imported into Microsoft Excel (Redmond, Wash.).
The cells were placed in a water-jacketed luminometer chamber (37° C.) (Autolumat Plus Model LB 953, Berthold Technologies, Bundoora, Australia) and the resulting light output recorded in millivolts (mV) at 10 second intervals. The data was analysed with Multiuser software (Berthold Tubemaster, Bundoora, Australia). The results are expressed as peak superoxide produced.
Various concentrations of TNFR1 fragment or diluent were added to neutrophils (106 in 100 μl HBSS) and incubated at 37° C. for 30 min 5% CO2 in air. After incubation 500 μl of lucigenin (250 μM, final), 100 μl of TNF70-80 (100 μg) were added and the final volume was adjusted to 1 ml.
Superoxide production by human neutrophils was measured by the reduction of the fluorescent lucigenin, (9,9′-bis(N-methyl-acridinium nitrate) (Sigma Chemical Company). This provides a direct and specific measure of agonist-induced superoxide production. Lucigenin-dependant chemiluminescence was measured as described previously Gyllenhannar H. (1987) J. Immunol. Methods 97:209-213. Briefly, 50 μl of 100 mg/ml of peptide or diluent and 250 ml of lucigenin was added to neutrophils (5×10^5 in 50 μl HBSS). The cells were placed in a water-jacketed luminometer chamber (37° C.) (Autolumat Plus Model LB 953, Berthold Technologies, Bundoora, Australia) and the resulting light output recorded in millivolts (mV) at 10 second intervals. The data was analysed with Multi-user software (Berthold Tubemaster, Bundoora, Australia).
Data are presented as mean±SEM of 3 experiments.

GCKR/GLK = GCKR/GLK activity in adherent neutrophils; type: cell-based, human; settings: plasma-coated dishes; 15 min; TNF 1000 U/ml, TNF70-80 10 μM
Protocol: as §3, §2

p38 [3] = experiment: p38 activation in 70Z/3 cells transfected with hTNFR1 constructs; type: cell-based, mouse
Protocol: The cells were then lysed, protein contents quantified and subjected to p38 kinase assay by Western blot. The results are presented as the mean+−sem of 3 experiments.
The cells were maintained in RPMI-1640 medium with 4.5 g/L glucose, 2 mM L-glutamine, […] 2-mercaptoethanol and 10% FCS in an atmosphere of 95% air and 5% CO2. Cells were plated onto 10 cm plates at 4×10^7 cells in 15 ml culture medium. Before performing transient transfection, plasmid DNA (hTNFR1), kindly provided by Dr M. Kronke, Institute of Medical Microbiology and Hygiene, Medical Center University of Cologne, Koln, Germany (Adam, D., Wiegmann, K., Adam-Klages, S., Ruff A., and Kronke, M. (1996) J. Biol. Chem. 271: 14617-22), (20 μg in 1 ml of RPMI1640) was mixed with LipofectAMINE 2000 (Invitrogen) (60 μl in 1 ml of RPMI) and the mixture were left at room temperature for 20 min. The mixture was directly added to the cells and incubated for 24 h. The cells were washed twice with HBSS before use.

JNK [4] = experiment: JNK activity in HUVEC (GST-jun solid phase assay); type: cell-based, human; settings: 15 min; TNF 100 and 1000 U/ml, TNF70-80 1-50 μM
Protocol: as §1, §2

Substance: PSTHVLITHTI-OH [TNF70-80]
- nuclear translocation of NFκB in neutrophils (NFκB; TNF70-80 10 μM, 30 min or 1 h): caused the translocation of NFκB to the nucleus
- degradation of IκB (NFκB; data not shown): caused the degradation of IκB
- activity of p38 in HUVEC (p38 [1]): stimulated the activity of p38
- ASK-1 phosphorylation in non-adherent neutrophils (ASK-1; data not shown): not altered
- ASK-1 phosphorylation in adherent neutrophils (ASK-1; plasma-coated dishes, 3 or 7 min): neither TNF nor TNF70-80 increased the level of ASK-1 phosphorylation
- activity/phosphorylation of JNK in neutrophils in suspension (JNK [2]): neither TNF nor TNF70-80 stimulated the activity of either JNK or ERK
- expression of E-selectin on endothelial cells (E-selectin): but not TNF70-80 (1-50 μM) stimulated the expression of E-selectin
- stimulation of neutrophil respiratory burst / superoxide production (neutrophils): stimulated a respiratory burst
- GCKR/GLK activity in adherent neutrophils (GCKR/GLK): poor at stimulating GCKR/GLK activity
- p38 activity in 70Z cells transfected with an empty vector (p38 [3]): did not stimulate the activity of p38
- p38 activity in 70Z cells, TNF receptor with C1-C3 deleted (p38 [3]): still able to stimulate p38 activity
- p38 activity in 70Z cells, TNF receptor with C1-C4 deleted (p38 [3]): retained its ability to stimulate p38 activity
- p38 activity in 70Z cells, TNF receptor with C1 domain deleted (p38 [3]): able to stimulate the activity of p38
- p38 activation in 70Z/3 cells transfected with wild type hTNFR1 (p38 [3]; 5 min, TNF 1000 U/ml, peptides 10 μM): caused the activation of p38; also recorded: stimulated the activity of p38 in cells transfected with wild type receptors
- p38 activation in non-transfected 70Z/3 cells (p38 [3]; cells lacking TNFR, 5 min, TNF 1000 U/ml, peptides 10 μM): neither TNF nor TNF70-80 activated p38
- activity of JNK in HUVEC (JNK [4]): failed to stimulate the activity of JNK
